We go through 4 compounds from patent US8227511B2, “Substituted chromanol derivatives and their use” (Bayer Intellectual Property GmbH, priority 2006, dated 2012).

Experiment [1] deals with T1, CETP (Homo sapiens, UniProt P11597).
T1 construct: CETP is obtained in partially purified form from human plasma by differential centrifugation and column chromatography and used for the test; from tissue; host or cells: human plasma
T1 sequence (P11597 18-493): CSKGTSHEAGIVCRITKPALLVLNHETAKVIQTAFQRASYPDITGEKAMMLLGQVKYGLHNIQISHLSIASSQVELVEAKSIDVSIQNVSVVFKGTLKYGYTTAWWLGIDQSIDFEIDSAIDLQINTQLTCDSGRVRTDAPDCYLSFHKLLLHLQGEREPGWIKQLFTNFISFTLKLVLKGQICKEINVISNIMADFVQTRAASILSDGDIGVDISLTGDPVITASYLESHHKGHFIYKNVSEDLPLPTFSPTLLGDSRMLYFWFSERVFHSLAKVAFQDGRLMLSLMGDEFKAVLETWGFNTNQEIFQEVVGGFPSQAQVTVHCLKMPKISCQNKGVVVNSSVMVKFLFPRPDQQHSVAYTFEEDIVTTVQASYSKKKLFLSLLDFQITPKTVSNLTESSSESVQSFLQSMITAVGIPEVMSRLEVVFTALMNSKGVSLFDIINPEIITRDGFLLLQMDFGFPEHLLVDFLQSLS
In words: CETP-SPA test. Type of experiment: biochemical. The settings on record: transfer of 3H-cholesterol ester from human HDL to biotinylated LDL; 37° C. for 18 h. As to the method: (§1) CETP is obtained in partially purified form from human plasma by differential centrifugation and column chromatography and used for the test. To this end, human plasma is adjusted to a density of 1.21 g per ml using NaBr and centrifuged at 4° C. at 50 000 rpm for 18 h. The bottom fraction (d>1.21 g/ml) is applied to a Phenyl-Sepharose 26/10 HP fast flow-column (Pharmacia), washed with PBS buffer and then eluted with distilled water. 10 parts of PBS buffer and 1% (w/v) BSA are added to the eluate. The CETP-active fractions are pooled.
For testing of the CETP activity, the transfer of ^3H-cholesterol ester from human HD lipoproteins to biotinylated LD lipoproteins is measured. The reaction is ended by addition of streptavidin-SPA® beads (Amersham) and the transferred radioactivity is determined directly in a liquid scintillation counter.
In the test batch, 10 μl of HDL-3H-cholesterol ester (about 50 000 cpm) are incubated at 37° C. for 18 h with 10 μl of biotin-LDL (Amersham) in 50 mM Hepes/0.15 M NaCl/0.1% bovine serum albumin (RSA)/0.05% NaN3 pH 7.4 containing 10 μl of CETP (1 mg/ml) and 3 μl of a solution of the substance to be tested (dissolved in 10% DMSO/1% RSA). 200 μl of the SPA-streptavidin bead solution (TRKQ 7005) are then added, incubated further with shaking for 1 h and then measured in a scintillation counter. Corresponding incubations with 10 μl of buffer, 10 μl of CETP at 4° C. and 10 μl of CETP at 37° C. serve as controls.
The activity transferred in the control batches with CETP at 37° C. is rated as 100% transfer. The substance concentration at which this transfer is reduced to half is specified as the IC50 value.

The target in experiment [2] is T1, CETP. In words: CETP fluorescence test with enriched CETP. Type of experiment: biochemical. The settings on record: enriched CETP fraction from human plasma; transfer of fluorescent cholesterol ester between liposomes; 37° C. for 4 h. On the procedure:
as §1
Measurement of the CETP-catalyzed transfer of a fluorescent cholesterol ester between liposomes [modified according to the procedure of Bisgaier et al., J. Lipid Res. 34, 1625 (1993)]:
For the production of the donor liposomes, 1 mg of cholesteryl 4,4-difluoro-5,7-dimethyl-4-bora-3a,4a-diaza-s-indacene-3-dodecanoate (cholesteryl BODIPY® FL C12, Molecular Probes) is dissolved in 2 ml of chloroform with 5.35 mg of triolein and 6.67 mg of phosphatidylcholine. The solvent is removed at medium temperature in a SpeedVac and the residue is dried under high vacuum for 1 h. The residue is then dissolved in 600 μl of dioxane with gentle warming in an ultrasonic bath and this solution is added very slowly with ultrasonication to 63 ml of 50 mM Tris/HCl, 150 mM NaCl, 2 mM EDTA buffer pH 7.3 at room temperature. The suspension is then ultrasonicated under an N2 atmosphere for 30 minutes in the Branson ultrasonic bath at about 50 watts, the temperature being kept at about 20° C.
The acceptor liposomes are obtained analogously from 86 mg of cholesteryl oleate, 20 mg of triolein and 100 mg of phosphatidylcholine dissolved in 1.2 ml of dioxane and 114 ml of the above buffer by ultrasonication at 50 watts (20° C.) for 30 minutes.
For testing, a test mix consisting of 1 part of above buffer, 1 part of donor liposomes and 2 parts of acceptor liposomes is used.
50 μl of test mix are treated with 48 μl of enriched CETP fraction (1-3 μg), obtained from human plasma by means of hydrophobic chromatography, and 2 μl of a solution of the substance to be investigated in DMSO and incubated at 37° C. for 4 h.
The change in the fluorescence at 485/535 nm is a measure of the CE transfer; the inhibition of the transfer in comparison to the control batch without substance is determined.

In experiment [3] the test system is transgenic hCETP mice. The experiment can be described thus: Measurement of the in vivo activity in transgenic hCETP mice. The settings on record: perorally once a day on 3 days, percentage change compared with the starting value. As to the method: To determine the oral action on lipoproteins and triglycerides, test substance is administered perorally to transgenic mice [Dinchuk et al., BBA, 1295-1301 (1995)] using a stomach tube once a day on 3 days. For this purpose, the substances are dissolved in 10% Solutol HS 15/10% ethanol/80% of a 0.9% strength sodium chloride solution; the administration volume is generally 10 ml per kg of body weight. Before the start of the experiment, blood is withdrawn from the mice retro-orbitally in order to determine cholesterol and triglycerides in the serum. The serum is obtained as described above for hamsters by incubation at room temperature for 30 min and subsequent centrifugation at 6000 g. On the day after the last administration of substance, blood is again withdrawn from the mice in order to determine lipoproteins and triglycerides. The changes in the parameters measured are expressed as the percentage change compared with the starting value.

Consider `CC(C)c1cc2c(c(-c3ccc(F)cc3)c1[C@@H](F)c1ccc(C(F)(F)F)cc1)[C@@H](O)CC1(CCC1)O2` [Example 30, (4S)-5-(4-Fluorophenyl)-6-{(S)-fluoro[4-(trifluoromethyl)phenyl]methyl}-7-isopropyl-3,4-dihydro-spiro[chromen-2,1′-cyclobutan]-4-ol], for which the figures for the IC50 in experiment [1] and in experiment [2] were 12 nM and 18 nM, respectively. Also, the “% increase of HDL after 3 d (dose: 3 × 3 mg/kg)” value (“% increase of HDL after 3 d” for short) in experiment [3] came out at 83%.

As for `CC(C)c1cc2c(c(-c3ccc(F)cc3)c1Cc1ccc(C(F)(F)F)cc1)[C@@H](O)CC1(CCC1)O2` [Example 32, (4S)-5-(4-Fluorophenyl)-7-isopropyl-6-[4-(trifluoromethyl)benzyl]-3,4-dihydrospiro[chromen-2,1′-cyclobutan]-4-ol], the IC50 in experiment [1] amounted to 4 nM; in experiment [2], 19 nM. For the same compound, the “% increase of HDL after 3 d” value in experiment [3] stood at 31%.

As to `CC(C)c1cc2c(c(-c3ccc(F)cc3)c1Cc1ccc(C(C)(C)C)cc1)[C@@H](O)CC1(CCC1)O2` [Example 36, (4S)-6-(4-tert-Butylbenzyl)-5-(4-fluorophenyl)-7-isopropyl-3,4-dihydrospiro[chromen-2,1′-cyclo-butan]-4-ol], the IC50 in experiment [1] was 6 nM; in experiment [2] it was 28 nM. Moreover, the “% increase of HDL after 3 d” value in experiment [3] is 40%.

Regarding `CC(C)c1cc2c(c(C3CCCC3)c1[C@@H](F)c1ccc(C(F)(F)F)cc1)[C@@H](O)CC1(CCC1)O2` [Example 42, (4S)-5-Cyclopentyl-6-{(S)-fluoro[4-(trifluoromethyl)phenyl]methyl}-7-isopropyl-3,4-dihydrospiro-[chroman-2,1′-cyclobutan]-4-ol], the IC50 stood at 21 nM in experiment [1] and 26 nM in experiment [2]. Further, the “% increase of HDL after 3 d” value in experiment [3] turned out to be 81%.

What is called IC50 is the midpoint of a concentration-inhibition curve. A low value points to greater potency in that assay.
